Reference: patent publication US20160091487A1, “ENGINEERING INDIVIDUALLY ADDRESSABLE CELLULAR SPHEROIDS USING AQUEOUS TWO-PHASE SYSTEMS” (priority 2012, published 2016)

Tested on: MDA-MB-157 spheroids
Assay: Viability of ATPS-generated cancer cell spheroids treated with cisplatin (PRESTO BLUE enzymatic assay)
Type: cell-based
Conditions: cisplatin 25 to 200 μM, four days incubation
Text: Component 1 contains 5%(w/w) polyethylene glycol (PEG, Mw: 35,000) and component 2 contains 12.8%(w/w) Dextran (DEX, Mw: 500,000). […] First, the PEG phase is loaded into wells of a well plate (destination plate) and this plate is placed on the work surface of a robotic liquid handler (FIG. 2). Then cells are harvested from a culture dish, mixed with the DEX phase at a 1:1 volumetric ratio to reduce DEX concentration to 6.4% (w/w), and loaded into a second plate (source plate). This plate is also placed on the work surface of the liquid handler. Pipette tips are mounted onto the dispense head of the liquid handler (FIG. 3) and are immersed into the source plate to load a defined volume (˜0.3 microliters) of the cell suspension in DEX phase. After retraction from the source plate, pipette tips are lowered into the destination plate and dispense their content. Dispensed solution forms a single droplet containing cells in each well and the droplet remains immiscible from its surrounding PEG phase (FIG. 4a). Cells aggregate and form an individual spheroid in each well (FIG. 4b and FIG. 5). […] The drug, diluted with culture media, was renewed once by the addition of 50 μL after two days of incubation.

Question: With `N.N.[Cl][Pt][Cl]` [cisplatin] as the compound, how does the “percent viability trend against drug concentration” value read?
Answer: Its value is “gradual decrease as the cisplatin concentration increases”.
